Experimental data as given in patent US9353081B2, “Bicyclic dihydroquinoline-2-one derivatives” (Hoffmann-La Roche Inc., priority 2011, dated 2016).
Where a name gives a salt, the structure may show the parent alone.

How the values were obtained:
human CYP11B1 = human CYP11B1 (Homo sapiens (Human), UniProt P15538); assay: G-402 cellular enzyme assay, human CYP11B1 (cortisol release, HTRF); format: cell-based; conditions: G-402 cells expressing human CYP11B1; 1 μM Deoxycortisol
Description: (§1) Specifically we developed stable G-402 cells expressing ectopically human CYP11B1, human CYP11B2, human CYP11A1, cynomolgus CYP11B1 or cynomolgus CYP11B2 enzyme activity.
(§2) The expression plasmids contains the ORF for either human/cyno CYP11B1 or CYP11B2 under the control of a suitable promoter (CMV-promoter) and a suitable resistance marker (neomycin). Using standard techniques the expression plasmid is transfected into G-402 cells and these cells are then selected for expressing the given resistance markers. Individual cell-clones are then selected and assessed for displaying the desired enzymatic activity using 11-Deoxycorticosterone (Cyp11B2) or 11-Deoxycortisol (Cyp11B1) as a substrate.
(§3) For assaying enzymatic activity, cells were plated onto 96 well plates and incubated for 16 h. An aliquot of the supernatant is then transferred and analyzed for the concentration of the expected product (Aldosterone for CYP11B2; Cortisol for CYP11B1). The concentrations of these steroids can be determined using HTRF assays from CisBio analyzing either Aldosterone or Cortisol.
(§4) Inhibition of the release of produced steroids can be used as a measure of the respective enzyme inhibition by test compounds added during the cellular enzyme assay. The dose dependent inhibition of enzymatic activity by a compound is calculated by means of plotting added inhibitor concentrations x-axes) vs. measured steroid/product level (y-axes). The inhibition is then calculated by fitting the following 4-parameter sigmoidal function (Morgan-Mercer-Flodin (MMF) model) to the raw data points using the least squares method:
(§5) [formula] wherein, A is the maximum y value, B is the EC50 factor determined using XLFit, C is the minimum y value and D is the slope value.
(§6) EC50 values for compounds claimed herein were tested with the G402-based assay system described. Cyp11B2 enzyme activity was tested in presence of 1 μM Deoxycorticosterone and variable amounts of inhibitors; Cyp11B1 enzyme activity was tested in presence of 1 μM Deoxycortisol and variable amounts of inhibitors.

human CYP11B2 = human CYP11B2 (Homo sapiens (Human), UniProt P19099); assay: G-402 cellular enzyme assay, human CYP11B2 (aldosterone release, HTRF); format: cell-based; conditions: G-402 cells expressing human CYP11B2; 1 μM Deoxycorticosterone
Description: as §1, §2, §3, §4, §5, §6

[1] = tested on: rats with experimental heart failure; conditions: cited from earlier work
[2] = tested on: rat model of chronic kidney disease; conditions: cited from earlier work; for plasma aldosterone: FAD286: 4 weeks of treatment, spironolactone: 4 and 8 weeks of treatment; for angiotensin II and salt-stimulated PAI-1 mRNA expression in the aorta and the heart / cardiac and aortic medial hypertrophy / renal effects of angiotensin II and high salt (albuminuria, azotemia, renovascular hypertrophy, glomerular injury, PAI-1 and osteopontin mRNA, tubulointerstitial fibrosis): rat CKD model
[3] = tested on: patients with primary aldosteronism; conditions: cited from earlier work

Sequence of human CYP11B1 (P15538 25-503): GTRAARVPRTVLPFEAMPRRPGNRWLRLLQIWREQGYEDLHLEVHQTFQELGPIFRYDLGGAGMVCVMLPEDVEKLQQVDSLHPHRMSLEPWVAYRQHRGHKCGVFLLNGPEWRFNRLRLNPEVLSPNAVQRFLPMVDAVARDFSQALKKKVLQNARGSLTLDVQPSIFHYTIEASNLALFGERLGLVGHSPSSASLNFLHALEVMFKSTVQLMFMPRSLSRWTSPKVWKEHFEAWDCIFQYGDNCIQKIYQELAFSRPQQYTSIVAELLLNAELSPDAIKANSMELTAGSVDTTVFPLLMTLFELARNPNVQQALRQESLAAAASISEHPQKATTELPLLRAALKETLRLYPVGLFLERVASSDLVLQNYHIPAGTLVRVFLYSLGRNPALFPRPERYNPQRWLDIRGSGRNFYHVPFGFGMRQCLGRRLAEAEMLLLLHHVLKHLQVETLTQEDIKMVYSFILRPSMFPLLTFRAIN
Sequence of human CYP11B2 (P19099 25-503): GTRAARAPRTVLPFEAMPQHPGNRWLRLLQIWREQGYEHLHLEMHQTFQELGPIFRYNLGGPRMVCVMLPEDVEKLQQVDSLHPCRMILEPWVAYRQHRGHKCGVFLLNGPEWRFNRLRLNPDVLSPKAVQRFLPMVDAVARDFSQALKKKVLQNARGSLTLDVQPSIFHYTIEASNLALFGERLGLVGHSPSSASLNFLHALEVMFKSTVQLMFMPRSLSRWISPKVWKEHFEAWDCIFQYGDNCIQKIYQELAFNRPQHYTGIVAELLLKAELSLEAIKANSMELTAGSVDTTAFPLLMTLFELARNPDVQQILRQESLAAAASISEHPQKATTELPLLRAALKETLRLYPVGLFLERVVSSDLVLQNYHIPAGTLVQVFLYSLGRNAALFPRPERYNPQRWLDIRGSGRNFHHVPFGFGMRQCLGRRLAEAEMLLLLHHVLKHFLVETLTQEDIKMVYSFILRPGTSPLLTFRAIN

| SMILES | EC50 (human CYP11B1) [nM] | EC50 (human CYP11B2) [nM] | further results |
| --- | --- | --- | --- |
| CCC(=O)NC1CCc2c(-c3cc(Cl)c4c(c3)CCC(=O)N4C)cncc21 (single isomer, unassigned; (+)) [Example 60, (+)-(R or S)—N-(4-(8-Chloro-1-methyl-2-oxo-1,2,3,4-tetrahydroquinolin-6-yl)-6,7-dihydro-5H-cyclopenta[c]pyridin-7-yl)propionamide] | 1170 | 8.8 |  |
| CCC(=O)NC1CCCc2c(-c3ccc4c(c3)CCC(=O)N4C)cncc21 (single isomer, unassigned; (-)) [Example 2, (−)-(R or S)—N-(4-(1-Methyl-2-oxo-1,2,3,4-tetrahydroquinolin-6-yl)-5,6,7,8-tetrahydroisoquinolin-8-yl)propionamide] | 12100 | 1020 |  |
| CCS(=O)(=O)NC1CCCc2c(-c3ccc4c(c3)CCC(=O)N4C)cncc21 (single isomer, unassigned; (-)) [Example 5, (−)-(R or S)—N-(4-(1-Methyl-2-oxo-1,2,3,4-tetrahydroquinolin-6-yl)-5,6,7,8-tetrahydroisoquinolin-8-yl)ethanesulfonamide] | 11800 | 1290 |  |
| C[C@@H](O)C(=O)NC1CCCc2c(-c3ccc4c(c3)CCC(=O)N4C)cncc21 (single isomer, unassigned; (-)) [Example 19, (−)-(2R)-2-Hydroxy-N-((4S or 4R)-4-(1-methyl-2-oxo-1,2,3,4-tetrahydroquinolin-6-yl)-5,6,7,8-tetrahydroisoquinolin-8-yl)propanamide] | 13200 | 493 |  |
| C[C@H](O)C(=O)NC1CCCc2c(-c3ccc4c(c3)CCC(=O)N4C)cncc21 (single isomer, unassigned; (-)) [Example 20, (−)-(2S)-2-hydroxy-N-((4S or 4R)-4-(1-methyl-2-oxo-1,2,3,4-tetrahydroquinolin-6-yl)-5,6,7,8-tetrahydroisoquinolin-8-yl)propanamide] | 25500 | 823 |  |
| CCC(=O)NC1CCCc2c(-c3cc4c(cc3F)N(C)C(=O)CC4)cncc21 (single isomer, unassigned; (-)) [Example 29, (−)-(S or R)—N-[4-(7-Fluoro-1-methyl-2-oxo-1,2,3,4-tetrahydro-quinolin-6-yl)-5,6,7,8-tetrahydro-isoquinolin-8-yl]-propionamide] | 42600 | 1790 |  |
| CCS(=O)(=O)NC1CCCc2c(-c3cc4c(cc3F)N(C)C(=O)CC4)cncc21 (single isomer, unassigned; (-)) [Example 31, (−)-(S or R)-Ethanesulfonic acid [4-(7-fluoro-1-methyl-2-oxo-1,2,3,4-tetrahydro-quinolin-6-yl)-5,6,7,8-tetrahydro-isoquinolin-8-yl]-amide] | 14500 | 1040 |  |
| CCC(=O)N[C@@H]1CCCc2c(-c3ccc4c(c3)CCC(=O)N4C)cncc21 [Example 3-1, (+)-(R)—N-(4-(1-Methyl-2-oxo-1,2,3,4-tetrahydroquinolin-6-yl)-5,6,7,8-tetrahydroisoquinolin-8-yl)propionamide] | 980 | 14 |  |
| CN1C(=O)CCc2cc(-c3cncc4c3CCCN4CCNC(=O)OC(C)(C)C)ccc21 [Example 11, {2-[5-(1-Methyl-2-oxo-1,2,3,4-tetrahydro-quinolin-6-yl)-3,4-dihydro-2H-[1,7]naphthyridin-1-yl]-ethyl}-carbamic acid tert-butyl ester] | 420 | 23 |  |
| CN1C(=O)CCc2cc(-c3cncc4c3CCCN4CCN)ccc21 [Example 12, 6-[1-(2-Amino-ethyl)-1,2,3,4-tetrahydro-[1,7]naphthyridin-5-yl]-1-methyl-3,4-dihydro-1H-quinolin-2-one hydrochloride] | 1880 | 4 |  |
| CCC(=O)NCCN1CCCc2c(-c3ccc4c(c3)CCC(=O)N4C)cncc21 [Example 13, N-{2-[5-(1-Methyl-2-oxo-1,2,3,4-tetrahydro-quinolin-6-yl)-3,4-dihydro-2H-[1,7]naphthyridin-1-yl]-ethyl}-propionamide] | 1810 | 14 |  |
| CCS(=O)(=O)NCCN1CCCc2c(-c3ccc4c(c3)CCC(=O)N4C)cncc21 [Example 14, N-(2-(5-(1-Methyl-2-oxo-1,2,3,4-tetrahydroquinolin-6-yl)-3,4-dihydro-1,7-naphthyridin-1(2H)-yl)ethyl)ethanesulfonamide] | 210 | 11 |  |
| CC(O)C(=O)NC1CCCc2c(-c3ccc4c(c3)CCC(=O)N4C)cncc21 [Example 15, (2R,S)-2-Hydroxy-N-[(4R,S)-4-(1-methyl-2-oxo-1,2,3,4-tetrahydroquinolin-6-yl)-5,6,7,8-tetrahydroisoquinolin-8-yl]propanamide] | 574 | 77.3 |  |
| C[C@@H](O)C(=O)NC1CCCc2c(-c3ccc4c(c3)CCC(=O)N4C)cncc21 (stereo partly drawn) [Example 16, (2R)-2-Hydroxy-N-((4R,S)-4-(1-methyl-2-oxo-1,2,3,4-tetrahydroquinolin-6-yl)-5,6,7,8-tetrahydroisoquinolin-8-yl)propanamide] | 1050 | 30.8 |  |
| C[C@H](O)C(=O)NC1CCCc2c(-c3ccc4c(c3)CCC(=O)N4C)cncc21 (stereo partly drawn) [Example 17, (2S)-2-Hydroxy-N-((4R,S)-4-(1-methyl-2-oxo-1,2,3,4-tetrahydroquinolin-6-yl)-5,6,7,8-tetrahydroisoquinolin-8-yl)propanamide] | 885 | 31.6 |  |
| CN1C(=O)CCc2cc(-c3cncc4c3CCC[C@H]4N)ccc21 [Example 61, (R)-6-(8-Amino-5,6,7,8-tetrahydroisoquinolin-4-yl)-1-methyl-3,4-dihydroquinolin-2(1H)-one] | 450 | 5.6 |  |
| CN1C(=O)CCc2cc(-c3cncc4c3CCC[C@H]4NC(=O)c3ncccc3Cl)ccc21 [Example 62, 3-Chloro-pyridine-2-carboxylic acid [(R)-4-(1-methyl-2-oxo-1,2,3,4-tetrahydro-quinolin-6-yl)-5,6,7,8-tetrahydro-isoquinolin-8-yl]-amide] | 558 | 5.3 |  |
| CC(=O)N[C@@H]1CCCc2c(-c3ccc4c(c3)CCC(=O)N4C)cncc21 [Example 63, N—[(R)-4-(1-Methyl-2-oxo-1,2,3,4-tetrahydro-quinolin-6-yl)-5,6,7,8-tetrahydro-isoquinolin-8-yl]-acetamide] | 1190 | 4.8 |  |
| CN1C(=O)CCc2cc(-c3cncc4c3CCC[C@H]4NC(=O)C3CC3)ccc21 [Example 64, Cyclopropanecarboxylic acid [(R)-4-(1-methyl-2-oxo-1,2,3,4-tetrahydro-quinolin-6-yl)-5,6,7,8-tetrahydro-isoquinolin-8-yl]-amide] | 2360 | 46.2 |  |
| CN1C(=O)CCc2cc(-c3cncc4c3CCC[C@H]4NS(C)(=O)=O)ccc21 [Example 65, N—[(R)-4-(1-Methyl-2-oxo-1,2,3,4-tetrahydro-quinolin-6-yl)-5,6,7,8-tetrahydro-isoquinolin-8-yl]-methanesulfonamide] | 1930 | 17 |  |
| CN1C(=O)CCc2cc(-c3cncc4c3CCC[C@H]4NS(=O)(=O)C3CC3)ccc21 [Example 66, Cyclopropanesulfonic acid [(R)-4-(1-methyl-2-oxo-1,2,3,4-tetrahydro-quinolin-6-yl)-5,6,7,8-tetrahydro-isoquinolin-8-yl]-amide] | 319 | 35.5 |  |
| CN1C(=O)CCc2cc(-c3cncc4c3CCCC4=O)ccc21 [Example 70, 1-Methyl-6-(8-oxo-5,6,7,8-tetrahydro-isoquinolin-4-yl)-3,4-dihydro-1H-quinolin-2-one] | 7170 | 15.7 |  |
| N#Cc1ccc(C2CCCc3cncn32)cc1 (stereo not shown) [FAD286] |  |  | blood pressure and cardiovascular function and structure [1]: improved; kidney function and morphology [1]: improve; plasma aldosterone [2]: reduced; angiotensin II and salt-stimulated PAI-1 mRNA expression in the aorta and the heart [2]: not; cardiac and aortic medial hypertrophy [2]: attenuated; renal effects of angiotensin II and high salt (albuminuria, azotemia, renovascular hypertrophy, glomerular injury, PAI-1 and osteopontin mRNA, tubulointerstitial fibrosis) [2]: prevented these renal effects |
| N#Cc1ccc([C@H]2CCc3cncn32)c(F)c1 [LCI699] |  |  | blood pressure [3]: mildly decreased; hypokalemia [3]: corrected; selectivity (effects on the glucocorticoid axis, cortisol synthesis) [3]: poor selectivity; circulating aldosterone levels ([3]; oral): significantly lower |
| CC(=O)S[C@@H]1CC2=CC(=O)CC[C@]2(C)[C@H]2CC[C@@]3(C)[C@@H](CC[C@@]34CCC(=O)O4)[C@H]12 [spironolactone] |  |  | plasma aldosterone [2]: increased; angiotensin II and salt-stimulated PAI-1 mRNA expression in the aorta and the heart [2]: enhanced; cardiac and aortic medial hypertrophy [2]: attenuated; renal effects of angiotensin II and high salt (albuminuria, azotemia, renovascular hypertrophy, glomerular injury, PAI-1 and osteopontin mRNA, tubulointerstitial fibrosis) [2]: prevented these renal effects |
